Experimental data: patent US20080004561A1, “Method for Treating Oncological, Virulent and Somatic Diseases, Method for Controlling Treatment Efficiency, Pharmaceutical Agents and Composition for Carrying Out Said Treatment” (priority 2005, published 2008)

Columns and labels:
Erlich carcinoma [1] = test: Influence of DNase administrated twice a day on Erlich tumor growth at mice (Example 1); type: in vivo; details: day 3 to 7, 7 day after transplantation
Experimental: (§1) Bovine pancreatic DNase I (Fermentas) and human recombinant DNase I (Dornase; Gentech) were used. DNase I solution for injections were prepared by dissolving of DNase matrix solution in sterile phosphate buffer directly before administration. Cyclophosphamide and Doxorubicin were dissolved according to instruction.
(§2) Blood plasma DNA of tumor-bearing mice was received according to technique described above. Highly metastatic and low metastatic stains of mice' Luice lung carcinoma and Erlich carcinoma were used. Cells were cultivated in RPMI-1640 media with adding of 10% embryonic calf serum, 1% penicillin—streptomycin in 5% carbon dioxide atmosphere. For tumor induction in mice, cells were cultivated until the monolayer, than were detached with trypsin-EDTA solution. Cells were washed trice by centrifuging in phosphate buffer and were resuspensed until their concentration have become 0.5×10^7/ml. Viability was defined by inclusion of methylene blue in hemocytometer. Suspensions that contained 95% of viable cells were used for administration to animals.
(§3) Mice of C57B1 line and white not thoroughbred mice from “Rappolovo” animal house were used. Weight of animals was 24-26 grams. Animals were contained in cages, for 6-7 mice per one cage on a standard diet without water restriction. LLC cells in dose of 5×10^5 in 100 mkl of phosphate buffer were injected in soft tissues of thigh. Erlich tumor was subcutaneously replanted on the right side by injection of 0.2 ml 10% cells' suspension in isotonic sodium chloride solution.
Influence of DNase I Administrated Twice a Day on Erlich Tumor Growth at Mice
(§4) Group 1—10 mice transplanted with Erlich carcinoma (control).
(§5) Group 2—10 mice transplanted with Erlich carcinoma. Mice were intraperitoneally injected with DNase at 1 mg/kg dose in […] of phosphate buffer twice a day starting from 3 up to 7 day after tumor transplantation.
Group 3—10 mice transplanted with Erlich carcinoma. Mice were intraperitoneally injected with DNase at 2 mg/kg dose in […] of phosphate buffer twice a day starting from 3 up to 7 day after tumor transplantation.

Erlich carcinoma [2] = test: Inhibition of Erlich tumor growth by different schemes of DNase administration (Example 2); type: in vivo, mice; details: day 3 to 7, 7 day after transplantation
Experimental: as §1, §2, §3
In our experiments DNA circulating in blood plasma of patients was the therapeutic target of DNase. Prolonged presence of DNase in blood plasma at catalytically effective concentrations is essential for provision of maximal therapeutic effect.
as §4, §5
Group 3—10 mice transplanted with Erlich carcinoma. Mice were intraperitoneally injected with DNase at 0.5 mg/kg dose in […] of phosphate buffer four times a day starting from 3 up to 7 day after tumor transplantation.

[3] = system: Staphylococcus aureus VT-2003R; test: DNase use for treatment of the experimental sepsis (Example 5); type: in vivo; details: mice, DNase 500 mkg/kg intraperitoneally four times a day, 1-3 days after infection
From the text: White not thoroughbred mice were used for experiment. Animals' weight was 24-26 grams. Pathogenic strain of Staphylococcus aureus VT-2003R at 1×10^10 bacteria/animal dose was inoculated to retroorbital sinus of animals. DNase was intraperitoneally administered. Isotonic solution of sodium chloride or Penicillin was administrated to control groups. Each experimental group contained 10 mice. Intraperitoneal administration of compound (DNAase) four times a day at 500 mkg/kg dose continued for 1-3 days after infection. Penicillin was intramusculary administrated. Efficiency of action was estimated by number of animals that stayed alive after the death of the last one in control group. All animals have died to the third day of the experiment in control group. Six animals stayed alive to the third day of the experiment in the group that administrated DNase. Protection was […]. Received data specify an opportunity and efficiency of DNase use for infections' treatment.

[4] = system: DNA from fresh blood serum; test: Sensitivity of circulating blood DNA to DNase action, electrophoresis (Example 9); type: biochemical, volunteers; details: DNA processed by DNase I for 3 hours at 37° C.
Experimental: DNA from fresh blood serum (mixture of blood received from 5 volunteers ) was isolated by standard phenol-chloroform method.
Sediment of nucleic acids was washed by 70% ethanol and dissolved in tris-EDTA buffer. Spectrophotometry with wave's length 260 nm (SF-46) was used for quantification of DNA. DNA was researched by electrophoresis in 0.8% […] gel with ethidium bromide staining. One part of received DNA was processed by DNase I for 3 hours at 37° C. After electrophoretic separation of processed and not processed DNA it was found out that: […]

[5] = system: LLC tumor (highly metastatic strain); test: DNase I influence on life span of mice transplanted with LLC tumor, highly metastatic strain (Example 16); type: in vivo, C57B1 mice; details: for Tumor's growth at the last day of DNase treatment: DNase 1 mg/kg two times a day, growth renewed after withdrawal; for 30 day (number of alive\number of dead in group) / 50 day (number of alive\number of dead in group): DNase 1 mg/kg intraperitoneally two times a day
Experimental: Five groups of LLC transplanted mice participated in the experiment.
Group 1—7 mice (control).
Group 2—6 mice were treated with intraperitoneal administration of DNase at 1 mg/kg dose two times a day starting from 3 up to 7 day after tumor transplantation.
Group 3—6 mice were treated with intraperitoneal administration of DNase at 1 mg/kg dose two times a day starting from 3 up to 10 day after tumor transplantation.
Group 4—6 mice were treated with intraperitoneal administration of DNase at 1 mg/kg dose two times a day starting from 3 up to 15 day after tumor transplantation.
Group 5—6 mice were treated with intraperitoneal administration of DNase at 1 mg/kg dose two times a day starting from 3 up to 18 day after tumor transplantation.
Results of experiment were estimated according to animals' survival on the 30 and 50 day after tumor transplantation.

[6] = system: HPRT gene's mutations in blood T-lymphocytes; test: Frequency of HPRT gene's mutations in blood T-lymphocytes, somatic mosaicism model (Example 18); type: in vivo; details: patients on Neovir after tumor surgery; human recombinant DNase I 200 mkg/kg intravenously 4 times a day during three weeks
From the text: Frequency of HPRT gene's mutations in blood T-lymphocytes was studied as a model of somatic mosaicism. Human HPRT gene (chromosome Xq26) encodes enzyme that is constitutionally expressing but not essential and is involved in metabolism of purine nucleotides. Cloning was done according to Bigbee W. method (Bigbee W. Et al., Mutation Res., 1998, v. 397, pp. 119-136).

[7] = DNase 1 mg/kg intraperitoneally twice a day
[8] = DNase 2 mg/kg intraperitoneally twice a day
[9] = DNase 0.5 mg/kg intraperitoneally four times a day

DNase
TGI % (Erlich carcinoma [1]; [7]): 61% | Tumor's volume (Erlich carcinoma [1]; [7]): 33 +/− 6 | TGI % (Erlich carcinoma [1]; [8]): 60% | Tumor's volume (Erlich carcinoma [1]; [8]): 34 +/− 7 | T% (tumor's growth inhibition) (Erlich carcinoma [2]; [9]): 76% | Tumor's volume (Erlich carcinoma [2]; [9]): 23 +/− 6 | T% (tumor's growth inhibition) (Erlich carcinoma [2]; [7]): 67% | Tumor's volume (Erlich carcinoma [2]; [7]): 32 +/− 6 | Number of animals that stayed alive to the third day ([3]; 10 per group): Six | Protection [3]: 67% | DNA band after electrophoresis [4]: disappeared completely | Tumor's growth at the last day of DNase treatment ([5]; 2nd group, day 3 to 7): significant inhibition of tumor's growth | Tumor's growth at the last day of DNase treatment ([5]; 3rd group, day 3 to 10): significant inhibition of tumor's growth | 30 day (number of alive\number of dead in group) ([5]; day 3 to 7): 0-6 | 50 day (number of alive\number of dead in group) ([5]; day 3 to 7): 0-6 | 30 day (number of alive\number of dead in group) ([5]; day 3 to 10): 3-6 | 50 day (number of alive\number of dead in group) ([5]; day 3 to 10): 0-6 | 50 day (number of alive\number of dead in group) ([5]; day 3 to 15): 3-3 | Inhibition of tumor growth at day 18 ([5]; DNase 1 mg/kg two times a day from 3rd up to 18th day): more than 95% | Incidence of HPRT-deficient clones, times less than with immunostimulating therapy only [6]: 3 times
